Test results: US5286715A, “New adamantyl comprising tripeptides, derivatives and hydrochlorides thereof, their preparation and use” (priority 1989, dated 1994)
“And” between values parts separate entries of the source, which are not always exact repeats. Identical values can stand only once. Like-named read-outs stand apart in the source and are kept apart here.

Tests used:
[1] = test system: MCa mammary carcinoma; assay: Intramuscular tumor growth in mice bearing MCa mammary carcinoma; type: in vivo, CBA mice; details: for Primary tumor weight % Inhibition / Primary tumor weight mg ± S.E.: 24 hrs after last treatment, hydrochloride
Procedure: The antitumor activity was examined in CBA mice bearing the MCa mammary carcinoma tumor or in C57BL mice inoculated with B-16 melanoma. The doses tested, 5 and 25 mg/kg bodyweight/day, given i.v. on days 1, 5, 9, 13 after tumor implantation were devoid of severe toxicity.
(§1) ^a Groups of 7 CBA mice, inoculated i.m. into the calf of the left
(§2) hind leg with 10^6 viable MCa mammary carcinoma cells on day 0, were
(§3) given i.v. the test compounds (saline for controls) on days 1, 5, 9, 13.
^b Evaluated 24 hrs after the last treatment. The tumor growth was
estimated by calliper measurements taking tumor density equal to 1 and
using the formula: tumor weight = (π/6)xA^2 xB, with A and B as tw
perpendicular axes (A<B).

[2] = test system: melanoma B-16; assay: Lung metastases development in mice bearing melanoma B-16; type: in vivo, C57BL/6 mice; details: for Animals without metastases % / Number of metastatic nodules/mouse % inhibition / Number of metastatic nodules/mouse mean (min-max): counted day 30; for reduction of lung metastases to a fraction of the number in untreated control groups: i.v. administration on day 4
Procedure: ^a Groups of 8 C57BL/6 mice (5-6 months old), inoculated i.v. with
10^5 melanoma B16 cells on day 0, were given i.v. 25 mg/kg of each
test compound (saline for controls) on days 4 or 7.
Macroscopically detectable lung metastases were counted on day 30.

[3] = test system: MCa mammary carcinoma; assay: Survival time of mice bearing MCa mammary carcinoma; type: in vivo, CBA mice; details: hydrochloride
Procedure: as §1, §2, §3
^b Survival time was recorded as the number of days of survival of
each mouse from the tumor implantation.

[4] = test system: Influenza A virus H3N2; type: cell-based; details: MDCK cells 10^4 cells/100 μL/well
[5] = test system: Influenza A virus H1N1; type: cell-based; details: MDCK cells 10^4 cells/100 μL/well
[6] = test system: MCa mammary carcinoma; assay: Lung metastases development in mice bearing MCa mammary carcinoma; type: in vivo, CBA mice; details: for Animals without macroscopically detectable lung metastases % / lung metastases % Inhibition / lung metastases, mean: 25 mg/kg i.v. days 1, 5, 9, 13, evaluated day 23, hydrochloride
Procedure: | ^a Groups of 7 CBA mice, inoculated i.m. into the calf of the left | hind leg with 10^6 viable MCa mammary carcinoma cells on day 0, were | given i.v. 25 mg/kg of each test compound (saline for controls) on days 1 | 5, 9, 13. Lung metastases evaluation was performed on the freshly removed | lung tissue immediately after killing on day 23 by using a low power | stereo microscope. | ^b Animals without macroscopically detectable lung metastatic nodules

[7] = test system: anti-HgG antibodies; assay: Immunoadjuvant activity in rabbits immunized with human gamma globulin (HgG); type: in vivo, New Zealand rabbits; details: 0.3 mg i.v. in PBS three days after immunogen; versus controls immunized with HgG in incomplete Freund's adjuvant
Procedure: The immunostimulating property of Isomer 1 and Isomer 2 of D,L(2-adamantyl-)-glycyl-L-alanyl-D-isoglutamine was tested in rabbits immunized with human gamma globulin (HgG).
New Zealand rabbits (five per group) were immunized s.c. with 0.5 mg of HgG in incomplete Freund's adjuvant. Isomer 1/Isomer 2 (0.3 mg) was administered i.v. in phosphate buffered saline (PBS) three days after immunogen. The formation of anti-HgG antibodies was followed by a solid phase radioimmunoassay method to provide a quantitative measure of anti-HgG antibodies in rabbit sera. Serum antibody content (mg/mL) was determined by parallel line bioassay method, using >>SIGMA<< antihuman IgG (whole molecule) as a standard.

[8] = 25 mg/kg i.v. on day +4, hydrochloride
[9] = 25 mg/kg i.v. on day +7, hydrochloride

SMILES	Primary tumor weight % Inhibition ([1]; 5 mg/kg i.v. days 1, 5, 9, 13)	Primary tumor weight mg ± S.E. ([1]; 5 mg/kg i.v. days 1, 5, 9, 13)	Primary tumor weight % Inhibition ([1]; 25 mg/kg i.v. days 1, 5, 9, 13)	Primary tumor weight mg ± S.E. ([1]; 25 mg/kg i.v. days 1, 5, 9, 13)	Animals without metastases % ([2]; 25 mg/kg i.v. on day +4)	Number of metastatic nodules/mouse % inhibition [2, 8]	Number of metastatic nodules/mouse mean (min-max) [2, 8]	Animals without metastases % [2, 9]	Number of metastatic nodules/mouse % inhibition [2, 9]	Number of metastatic nodules/mouse mean (min-max) [2, 9]	reduction of lung metastases to a fraction of the number in untreated control groups [2]	Survival time % Increase ([3]; 5 mg/kg i.v. days 1, 5, 9, 13)	Survival time (days) mean (min-max) ([3]; 5 mg/kg i.v. days 1, 5, 9, 13)	Survival time % Increase ([3]; 25 mg/kg i.v. days 1, 5, 9, 13)	Survival time (days) mean (min-max) ([3]; 25 mg/kg i.v. days 1, 5, 9, 13)	MIC (minimum inhibitory concentration) ([4]; hydrochloride)	MIC (minimum inhibitory concentration) ([5]; hydrochloride)	Animals without macroscopically detectable lung metastases % [6]	lung metastases % Inhibition [6]	lung metastases, mean [6]	other results
C[C@H](NC(=O)C(N)C1C2CC3CC(C2)CC1C3)C(=O)N[C@H](CCC(=O)O)C(N)=O.Cl (single isomer, unassigned; isomer 1) [Isomer 1, D,L-(2-Adamantyl-)-glycyl-L-alanyl-D-isoglutamine hydrochloride]	-28%	1387 ± 224 mg	-21%	1522 ± 182 mg	37%	-68%	1.0 (0-2)	37%	-76%	0.64 (0-1)	1/3	+10%	24.6 (18-31) days	+13%	25.4 (15-40) days	> 200 µg	12.5 µg	14.3%	-43%	2.71	
C[C@H](NC(=O)C(N)C1C2CC3CC(C2)CC1C3)C(=O)N[C@H](CCC(=O)O)C(N)=O.Cl (single isomer, unassigned; isomer 2) [Isomer 2, D,L-(2-Adamantyl-)-glycyl-L-alanyl-D-isoglutamine hydrochloride]	-44%	1076 ± 132 mg	-19%	1559 ± 177 mg	37%	-69%	0.97 (0-2)	28%	-48%	1.38 (0-4)	1/3	+22%	27.4 (18-40) days	+32%	29.7 (18-40) days	50 µg	100 µg	57.1% and 57%	-76%	1.14	reduction of the volume of the intramuscular tumor ([1]; 5 mg/kg bodyweight/day i.v., 24 hours after the last day of treatment): 44%; Antibody formation against HgG [7]: significantly enhanced; spontaneous dissemination of tumor to the lungs, % of controls ([6]; 25 mg/kg bodyweight/day i.v.): 24 % of controls
NC12CC3CC(CC(C3)C1)C2 [Symmetrel, amantadine, reference compound]																					MIC (minimum inhibitory concentration) [4]: < 12.5 µg; MIC (minimum inhibitory concentration) [5]: < 12.5 µg
